From ChEMBL document CHEMBL4819123, “Pulchinenosides: Correlation of surface activity-cytotoxicity and hepatocyte apoptosis mechanism study” (Bioorg Med Chem Lett, 2021)

Tests used:
[1] = system: L02; assay: Induction of cell cycle arrest in human L02 cells assessed as S phase accumulation at 18 uM by PI staining based flow cytometry analysis (reference value: 38.23 %); conditions: l02, 18 µM
[2] = system: L02; assay: Induction of cell cycle arrest in human L02 cells assessed as G0/G1 phase accumulation at 24 uM by PI staining based flow cytometry analysis (reference value: 53.77 %); conditions: l02, 24 µM
[3] = system: L02; assay: Cytotoxicity against human L02 cells assessed as increase in LDH leakage by LDH assay; type: cell-based
[4] = system: L02; assay: Induction of cell cycle arrest in human L02 cells assessed as S phase accumulation at 26 uM by PI staining based flow cytometry analysis (reference value: 38.23 %); conditions: l02, 26 µM
[5] = system: L02; assay: Induction of cell cycle arrest in human L02 cells assessed as G2/M phase accumulation at 24 uM by PI staining based flow cytometry analysis (reference value: 8 %); conditions: l02, 24 µM
[6] = system: L02; assay: Induction of apoptosis in human L02 cells assessed as early apoptotic cells at 18 uM by annexin-V-FITC/PI staining based flow cytometry analysis (reference value: 3.81 %); type: cell-based; conditions: l02, 18 µM
[7] = Oil-water partition coefficient, logP of compound; type: physicochemical
[8] = system: L02; assay: Induction of cell cycle arrest in human L02 cells assessed as G2/M phase accumulation at 18 uM by PI staining based flow cytometry analysis (reference value: 8 %); conditions: l02, 18 µM
[9] = system: L02; assay: Induction of cell cycle arrest in human L02 cells assessed as G2/M phase accumulation at 26 uM by PI staining based flow cytometry analysis (reference value: 8 %); conditions: l02, 26 µM
[10] = system: L02; assay: Induction of apoptosis in human L02 cells assessed as late apoptotic cells at 24 uM by annexin-V-FITC/PI staining based flow cytometry analysis (reference value: 0.92 %); type: cell-based; conditions: l02, 24 µM
[11] = system: L02; assay: Induction of apoptosis in human L02 cells assessed as late apoptotic cells at 26 uM by annexin-V-FITC/PI staining based flow cytometry analysis (reference value: 0.92 %); type: cell-based; conditions: l02, 26 µM
[12] = system: L02; assay: Cytotoxicity against human L02 cells by MTT assay; type: cell-based
[13] = system: L02; assay: Induction of apoptosis in human L02 cells assessed as early apoptotic cells at 24 uM by annexin-V-FITC/PI staining based flow cytometry analysis (reference value: 3.81 %); type: cell-based; conditions: l02, 24 µM
[14] = system: L02; assay: Induction of cell cycle arrest in human L02 cells assessed as G0/G1 phase accumulation at 26 uM by PI staining based flow cytometry analysis (reference value: 53.77 %); conditions: l02, 26 µM
[15] = system: L02; assay: Induction of cell cycle arrest in human L02 cells assessed as G0/G1 phase accumulation at 18 uM by PI staining based flow cytometry analysis (reference value: 53.77 %); conditions: l02, 18 µM
[16] = Hemolytic activity in rabbit erythrocytes; type: ADME, cell-based, Oryctolagus cuniculus, Erythrocyte; conditions: read-out: HD50 (the source's name)
[17] = system: L02; assay: Induction of apoptosis in human L02 cells assessed as late apoptotic cells at 18 uM by annexin-V-FITC/PI staining based flow cytometry analysis (reference value: 0.92 %); type: cell-based; conditions: l02, 18 µM
[18] = system: L02; assay: Induction of cell cycle arrest in human L02 cells assessed as S phase accumulation at 24 uM by PI staining based flow cytometry analysis (reference value: 38.23 %); conditions: l02, 24 µM
[19] = system: L02; assay: Induction of apoptosis in human L02 cells assessed as early apoptotic cells at 26 uM by annexin-V-FITC/PI staining based flow cytometry analysis (reference value: 3.81 %); type: cell-based; conditions: l02, 26 µM
[20] = system: L02; assay: Induction of apoptosis in human L02 cells assessed as early apoptotic cells at 6 uM by annexin-V-FITC/PI staining based flow cytometry analysis (reference value: 3.81 %); type: cell-based; conditions: l02, 6 µM
[21] = system: L02; assay: Induction of cell cycle arrest in human L02 cells assessed as G0/G1 phase accumulation at 8 uM by PI staining based flow cytometry analysis (reference value: 53.77 %); conditions: l02, 8 µM
[22] = system: L02; assay: Induction of cell cycle arrest in human L02 cells assessed as S phase accumulation at 8 uM by PI staining based flow cytometry analysis (reference value: 38.23 %); conditions: l02, 8 µM
[23] = system: L02; assay: Induction of cell cycle arrest in human L02 cells assessed as G2/M phase accumulation at 8 uM by PI staining based flow cytometry analysis (reference value: 8 %); conditions: l02, 8 µM
[24] = system: L02; assay: Induction of apoptosis in human L02 cells assessed as decrease in caspase 9 level at 8 to 12 ug/ml measured after 24 hrs by Western blot analysis; type: cell-based; conditions: l02, 24 h, dose 8-12 µg/ml
[25] = system: L02; assay: Induction of cell cycle arrest in human L02 cells assessed as S phase accumulation at 10 uM by PI staining based flow cytometry analysis (reference value: 38.23 %); conditions: l02, 10 µM
[26] = system: L02; assay: Induction of apoptosis in human L02 cells assessed as late apoptotic cells at 10 uM by annexin-V-FITC/PI staining based flow cytometry analysis (reference value: 0.92 %); type: cell-based; conditions: l02, 10 µM
[27] = system: L02; assay: Induction of cell cycle arrest in human L02 cells assessed as G2/M phase accumulation at 10 uM by PI staining based flow cytometry analysis (reference value: 8 %); conditions: l02, 10 µM
[28] = system: L02; assay: Induction of cell cycle arrest in human L02 cells assessed as G0/G1 phase accumulation at 10 uM by PI staining based flow cytometry analysis (reference value: 53.77 %); conditions: l02, 10 µM
[29] = system: L02; assay: Induction of cell cycle arrest in human L02 cells assessed as G0/G1 phase accumulation at 6 uM by PI staining based flow cytometry analysis (reference value: 53.77 %); conditions: l02, 6 µM
[30] = system: L02; assay: Induction of apoptosis in human L02 cells assessed as increase in cleaved caspase 8 level at 8 to 12 ug/ml measured after 24 hrs by Western blot analysis; type: cell-based; conditions: l02, 24 h, dose 8-12 µg/ml
[31] = system: L02; assay: Induction of apoptosis in human L02 cells assessed as early apoptotic cells at 10 uM by annexin-V-FITC/PI staining based flow cytometry analysis (reference value: 3.81 %); type: cell-based; conditions: l02, 10 µM
[32] = system: L02; assay: Induction of apoptosis in human L02 cells assessed as upregulation of FAS expression at 8 to 12 ug/ml measured after 24 hrs by Western blot analysis; type: cell-based; conditions: l02, 24 h, dose 8-12 µg/ml
[33] = system: L02; assay: Induction of apoptosis in human L02 cells assessed as late apoptotic cells at 6 uM by annexin-V-FITC/PI staining based flow cytometry analysis (reference value: 0.92 %); type: cell-based; conditions: l02, 6 µM
[34] = system: L02; assay: Induction of cell cycle arrest in human L02 cells assessed as S phase accumulation at 6 uM by PI staining based flow cytometry analysis (reference value: 38.23 %); conditions: l02, 6 µM
[35] = system: L02; assay: Induction of apoptosis in human L02 cells assessed as decrease in ratio of Bcl-2/Bax at 8 to 12 ug/ml measured after 24 hrs by Western blot analysis; type: cell-based; conditions: l02, 24 h, dose 8-12 µg/ml
[36] = system: L02; assay: Induction of apoptosis in human L02 cells assessed as late apoptotic cells at 8 uM by annexin-V-FITC/PI staining based flow cytometry analysis (reference value: 0.92 %); type: cell-based; conditions: l02, 8 µM
[37] = system: L02; assay: Induction of apoptosis in human L02 cells assessed as decrease in caspase 8 level at 8 to 12 ug/ml measured after 24 hrs by Western blot analysis; type: cell-based; conditions: l02, 24 h, dose 8-12 µg/ml
[38] = system: L02; assay: Induction of apoptosis in human L02 cells assessed as early apoptotic cells at 8 uM by annexin-V-FITC/PI staining based flow cytometry analysis (reference value: 3.81 %); type: cell-based; conditions: l02, 8 µM
[39] = system: L02; assay: Induction of cell cycle arrest in human L02 cells assessed as G2/M phase accumulation at 6 uM by PI staining based flow cytometry analysis (reference value: 8 %); conditions: l02, 6 µM

Row | SMILES | Activity [1] [%] | Activity [2] [%] | Activity [3] | Activity [4] [%] | Activity [5] [%] | Activity [6] [%] | logP [7] | Activity [8] [%] | Activity [9] [%] | Activity [10] [%] | Activity [11] [%] | IC50 [12] [µM] | Activity [13] [%] | Activity [14] [%] | Activity [15] [%] | HC50 [16] [µM] | Activity [17] [%] | Activity [18] [%] | Activity [19] [%] | further results
1 | C[C@@H]1O[C@@H](O[C@H]2[C@H](O[C@H]3CC[C@@]4(C)[C@@H](CC[C@]5(C)[C@@H]4CC=C4[C@@H]6CC(C)(C)CC[C@]6(C(=O)O)CC[C@]45C)[C@]3(C)CO)OC[C@H](O)[C@@H]2O)[C@H](O)[C@H](O)[C@H]1O [ALPHA-HEDERIN] | 31 | 59.52 | Toxic | 40.88 | 8 | 16.84 | 0.0672 | 8 | 6.72 | 15.5 | 94.2 | 21 | 17 | 52.42 | 61 | 9.04 | 8.18 | 32.48 | 1.98 | 
2 | C[C@@H]1O[C@@H](O[C@H]2[C@H](O[C@H]3CC[C@]4(C)[C@H]5CC=C6[C@@H]7CC(C)(C)CC[C@]7(C(=O)O)CC[C@@]6(C)[C@]5(C)CC[C@H]4C3(C)C)OC[C@H](O[C@@H]3O[C@H](CO)[C@@H](O)[C@H](O)[C@H]3O)[C@@H]2O)[C@H](O)[C@H](O)[C@H]1O [HEDERACOLCHISIDE A1] |  |  | Toxic |  |  |  | 0.0406 |  |  |  |  | 7.13 |  |  |  | 3.24 |  |  |  | Activity [20]: 4.59%; Activity [21]: 67.33%; Activity [22]: 32.66%; Activity [23]: 2%; Activity [24]: Toxic; Activity [25]: 58.44%; Activity [26]: 94.1%; Activity [27]: 1.88%; Activity [28]: 39.69%; Activity [29]: 62.05%; Activity [30]: Toxic; Activity [31]: 3.51%; Activity [32]: Toxic; Activity [33]: 3.11%; Activity [34]: 29.95%; Activity [35]: Toxic; Activity [36]: 38.6%; Activity [37]: Toxic; Activity [38]: 17.6%; Activity [39]: 8%
3 | C[C@@H]1O[C@@H](O[C@H]2[C@H](O[C@H]3CC[C@@]4(C)[C@@H](CC[C@]5(C)[C@@H]4CC=C4[C@@H]6CC(C)(C)CC[C@]6(C(=O)O)CC[C@]45C)[C@]3(C)CO)OC[C@H](O[C@@H]3O[C@H](CO)[C@@H](O)[C@H](O)[C@H]3O)[C@@H]2O)[C@H](O)[C@H](O)[C@H]1O [HEDERACOLCHISIDE A] | 40.23 | 7.96 | Toxic | 30.28 | 61.63 | 13.7 | 0.115 | 1.47 | 8 | 10.3 | 94.9 | 21.1 | 15.9 | 61.72 | 58.3 | 6.83 | 4.61 | 30.41 | 2.2 | 
